Test [1] deals with HEK293. Briefly: Inhibition of Wnt/beta-catenin signaling in HEK293 cells stably transfected with TOP reporter gene assessed as TCF/beta-catenin transcriptional activity after 24 hrs by TOP activity/luciferase reporter gene assay. Format: cell-based. The following applies: Homo sapiens; for IC50: HEK293, 24 h. In general terms: In a reporter assay the amount or activity of a reporter protein is the signal.

In test [2] the test system is HEK293. The experiment in a line: Cytotoxicity against human HEK293 cells after 24 hrs by fluorometric microculture cytotoxicity assay. Type of test: cell-based. The following applies: HEK293, 24 h.
The test system of test [3] is RKO. Briefly: Cytotoxicity against human Wnt-independent RKO cells after 24 hrs by fluorometric microculture cytotoxicity assay. Format: functional, cell-based.
Test [4] concerns SW480. Briefly: Cytotoxicity against human Wnt-dependent SW480 cells after 24 hrs by fluorometric microculture cytotoxicity assay. The following applies: SW480, 24 h. Type of test: functional, cell-based.
A short description of test [5]: Cytotoxicity against human Wnt-dependent DLD1 cells after 24 hrs by fluorometric microculture cytotoxicity assay. Type of test: functional, cell-based. The following applies: DLD-1, 24 h.
The subject of test [6] is HCT-116. Briefly: Cytotoxicity against human Wnt-dependent HCT116 cells after 24 hrs by fluorometric microculture cytotoxicity assay. Type of test: functional, cell-based. The following applies: HCT-116, 24 h.
In test [7] the test system is HEK293. Briefly: Inhibition of Wnt/beta-catenin signaling in HEK293 cells stably transfected with FOP reporter gene assessed as TCF/beta-catenin transcriptional activity after 24 hrs by FOP activity/luciferase reporter gene assay. Type of test: cell-based. The following applies: Homo sapiens.
Test [8] concerns HEK293. The experiment in a line: Reduction in beta-catenin level in human HEK293 cell nucleus stably transfected with TOP reporter gene at 1 to 20 uM after 24 hrs by Western blot analysis. Format: functional, cell-based.
For test [9], the system named is HEK293. Briefly: Reduction in beta-catenin level in human HEK293 cell cytosol stably transfected with TOP reporter gene at 1 to 20 uM after 24 hrs by Western blot analysis. Format: functional, cell-based.
The test system of test [10] is HEK293. Briefly: Reduction in c-myc level in human HEK293 cell nucleus stably transfected with TOP reporter gene at 1 to 20 uM after 24 hrs by Western blot analysis. Type of test: functional, cell-based.
Test [11] has as its system HEK293. The experiment in a line: Reduction in beta-catenin level in human HEK293 cell nucleus stably transfected with TOP reporter gene at 20 uM after 24 hrs by Western blot analysis in presence of 1 uM MG132. Format: functional, cell-based.

The source made the active and inactive calls. No cut-off for these calls is given here. Where only a bound is given, the exact number is not on record here.

For orientation: IC50 means the concentration needed to halve the response being measured. For the compound `CC1(C)CC[C@]2(C(=O)O)CC[C@]3(COC(=O)/C=C/c4ccc(O)c(O)c4)C(=CC[C@@H]4[C@@]5(C)CC[C@H](OC(=O)/C=C/c6ccc(O)c(O)c6)C(C)(C)[C@@H]5CC[C@]43C)[C@@H]2C1`, the IC50 in [1] was 14.8 µM; in test [2] it was 29.3 µM; in test [3], greater than 40 µM; in [4], greater than 40 µM; in test [5], greater than 40 µM; in test [6] it was greater than 40 µM.

Take `COc1cc(/C=C/C(=O)OCCCc2ccc(O[C@@H](COC(=O)/C=C/c3ccc(O)c(OC)c3)[C@@H](O)c3ccc(O)c(OC)c3)c(O)c2)ccc1O`: in test [1], the inhibition result was “Dose-dependent effect”. For the same compound, the IC50 is 4.5 µM in [1]; 24.2 µM in test [2]; 23 µM in test [3]; greater than 40 µM in test [4]; greater than 40 µM in test [5]; greater than 39 µM in test [6]. Also, the outcome in [7] was inactive.

As for `COc1cc(/C=C/C(=O)OCCCc2cc(OC)c3c(c2)[C@@H](COC(=O)/C=C/c2ccc(O)c(OC)c2)[C@H](c2ccc(O)c(OC)c2)O3)ccc1O`, the inhibition entry in test [1] is “Dose-dependent effect”. Moreover, the half-maximal inhibitory concentration (IC50) in test [1] was 1 µM; in test [2] it was 30.3 µM; in [3] it was 25.4 µM; in [4] it was greater than 40 µM; in [5], greater than 40 µM; in test [6], greater than 22.8 µM. Also, the result in test [7] was inactive. Besides, the inhibition entry in [8], in test [9] and in test [10] was “Active” throughout. Besides, the inhibition entry in [11] was “inactive”.

Turning to `COc1cc(/C=C/C(=O)OCCCc2ccc(O[C@@H](COC(=O)/C=C/c3ccc(O)c(OC)c3)[C@@H](O)c3ccc(O)c(OC)c3)c(OC)c2)ccc1O` (relative stereo), the inhibition result in [1] was “Dose-dependent effect”. For the same compound, the IC50 in test [1] is 6.3 µM; in [2] it was 26.4 µM; in test [3], 36.1 µM; in test [4] it was greater than 40 µM; in test [5], greater than 40 µM; in [6], greater than 40 µM. Further, in test [7], the result was inactive.

In the case of `COc1cc(/C=C/C(=O)OCCCc2cc(OC)c3c(c2)[C@@H](COC(=O)/C=C/c2ccc(O)c(OC)c2)[C@H](c2cc(OC)c(O)c(OC)c2)O3)ccc1O`, the inhibition result in test [1] was “Dose-dependent effect”. Besides, the 50% inhibitory concentration (IC50) is 1.9 µM in test [1]; 36.1 µM in test [2]; greater than 40 µM in test [3]; greater than 40 µM in [4]; greater than 40 µM in test [5]; greater than 40 µM in [6]. Also, the outcome in test [7] was inactive.
